# Measurements from patent publication US7012060B1, “TNF receptor and steroid hormone in a combined therapy” (priority 1995, dated 2006).
# Marks after values point to notes of the source that are not given here.
# Experiments:
# [1] = tested on: septic shock induced by LPS + D-Galactosamine, in mice; experiment: LPS+D-Galactosamine-induced septic shock model; assay type: in vivo, SPF female BALB/c inbred mice
# Description: The experiments were carried out in vivo on mice. The septic shock was induced by an i.p. administration of a mixture of LPS (0.1 μg/mouse) and D-Galactosamine (18 mg/mouse).
# The treatment schedule for r-hTBP-1 based on repeated administrations (the total dose was divided into 4 administrations given at time 0 and […] and 24 hours after), was adopted. CHO r-hTBP-1 was tested, alone or in combination with DHEA, at dose levels of 62.5 and 125 μg/mouse (total dose).
# DHEA was tested both in a single administration injected i.p. one hour before and contemporaneously to the septic shock-inducing agent at doses encompassed between 100 and 2.000 μg/mouse and in repeated treatment with the total dose (250 μg/mouse) divided into 4 injections given within 24 hours.
# The above treatment schedules of DHEA (doses from 250 to 1,500 μl g/mouse) were followed also in combination with r-hTBP-1 which was tested at the total dose varying from 62.5 to 125 μg/mouse (divided into 4 administrations).
# SPF female BALB/c inbred mice, 6–8 weeks (about 18–20 g b.w.), from Charles River were used throughout the whole study after an acclimatisation period of at least 7 days.
# Unless otherwise specified, in all the experiments the mice were randomly divided into groups of 10 animals each.
# Both substances were dissolved in saline. The mixture of LPS (0.1 μg/mouse) and D-Galactosamine (18 mg/mouse) was prepared by mixing equal volumes of these substances. The mixture was subsequently injected to animals by the i.p. route. This dose was selected under precious experiments as that inducing around 80% mortality calculated as the number of dead vs. total number of mice for each croup. The lethality was monitored after 24, 48, 72 and 96 hours and at day 7 post-treatment.
# The drug was diluted in saline and injected by repeated administrations, i.e. i.v. immediately before the inoculum of LPS plus D-Galactosamine and s.c. 3, 6 and 24 hours later.
# The effects of DHEA, alone or in combination with r-hTBP-1, were assayed after single i.p. administrations at different times in respect to LPS+D-Galactosamine injection; in particular, it was administered 1 hour before and contemporaneously to the septic shock-inducing agent.
# A repeated treatment schedule was also investigated in which DHEA was administered at time 0 (septic shock induction) and 3, 6 and 24 hours later. DHEA was initially vehicled in a mixture of 2.5% alcohol and 10% rabbit serum in saline. To improve the solubility and standardise the preparation, the steroid was successively dispersed in a mixture of 2.5% alcohol and 10% phospholipid emulsion in saline.
# The primary end point was the survival rate at 48 hours after induction of septic shock. The comparison of the effects of each treatment group vs. controls and among treatment groups was effected by Fisher's exact test, one-tailed. The same comparison was also performed at the other time points. The results in each treatment group were expressed as percent survival.
# In all the experiments, percent survival values were calculated using the survival Tables for the follow up studies (Armitage P. Cap. XIV. Tavole di sopravvivenza in Statistica Medica, Feltrinelli, Milano). The χ^2-test was applied to each observation time by comparing the DHEA+r-hTBP-1 groups to the other groups.
# [2] = tested on: systemic lupus erythematosus; details: mouse model; cited from earlier work
# coxsackievirus B4 = details: cited from earlier work
# Semliki Forest virus = details: cited from earlier work
# [3] = tested on: septic shock induced by Tumor Necrosis Factor alpha (TNF-α) in combination with D-Galactosamine; details: mice; cited from earlier work
# TNF-α = details: both in vivo and in vitro; cited from earlier work
smiles,measurement,setting,value
"C[C@]12CC[C@H](O)CC1=CC[C@@H]1[C@@H]2CC[C@]2(C)C(=O)CC[C@@H]12 [DHEA, Dehydroepiandrosterone]",% cumulative survival,"[1]; DHEA 1500 μg/mouse i.p. 1 hour before LPS + D-Gal, saline 10% rabbit serum, 96 hrs, 2nd exp",50%
same,% cumulative survival,"[1]; DHEA 2000 μg/mouse i.p. 1 hour before LPS + D-Gal, saline 10% rabbit serum, 24 hrs, 1st exp",100^a %
same,% cumulative survival,"[1]; DHEA 2000 μg/mouse i.p. 1 hour before LPS + D-Gal, saline 10% rabbit serum, 24 hrs, 2nd exp",100^a %
same,% cumulative survival,"[1]; DHEA 2000 μg/mouse i.p. 1 hour before LPS + D-Gal, saline 10% rabbit serum, 48 hrs, 1st exp",100^a %
same,% cumulative survival,"[1]; DHEA 2000 μg/mouse i.p. 1 hour before LPS + D-Gal, saline 10% rabbit serum, 48 hrs, 2nd exp",100^a %
same,% cumulative survival,"[1]; DHEA 2000 μg/mouse i.p. 1 hour before LPS + D-Gal, saline 10% rabbit serum, 72 hrs, 1st exp",100^a %
same,% cumulative survival,"[1]; DHEA 2000 μg/mouse i.p. 1 hour before LPS + D-Gal, saline 10% rabbit serum, 72 hrs, 2nd exp",100^a %
same,% cumulative survival,"[1]; DHEA 2000 μg/mouse i.p. 1 hour before LPS + D-Gal, saline 10% rabbit serum, 96 hrs, 1st exp",100^a %
same,% cumulative survival,"[1]; DHEA 2000 μg/mouse i.p. 1 hour before LPS + D-Gal, saline 10% rabbit serum, 96 hrs, 2nd exp",100^a %
same,survival,[1]; DHEA 1.000 and 1.500 μg/mouse alone,0–40%
same,protective effects,"[1]; DHEA at doses higher than 1.000 μg/mouse, 1 hour before LPS+D-Galactosamine",statistically significant protective effects
same,protective effects,"[1]; DHEA up to 1.000 μg/mouse, 1 hour before LPS+D-Galactosamine",No protective effects
same,% cumulative survival,"[1]; Table 2, DHEA 1000 μg/mouse i.p. 1 hour before LPS + D-Gal, saline 10% rabbit serum, 24 hrs",0%
same,% cumulative survival,"[1]; Table 2, DHEA 1000 μg/mouse i.p. 1 hour before LPS + D-Gal, saline 10% rabbit serum, 48 hrs",0%
same,% cumulative survival,"[1]; Table 2, DHEA 1000 μg/mouse i.p. 1 hour before LPS + D-Gal, saline 10% rabbit serum, 72 hrs",0%
same,% cumulative survival,"[1]; Table 2, DHEA 1000 μg/mouse i.p. 1 hour before LPS + D-Gal, saline 10% rabbit serum, 96 hrs",0%
same,% cumulative survival,"[1]; Table 2, DHEA 1500 μg/mouse i.p. 1 hour before LPS + D-Gal, saline 10% rabbit serum, 24 hrs",40%
same,% cumulative survival,"[1]; Table 2, DHEA 1500 μg/mouse i.p. 1 hour before LPS + D-Gal, saline 10% rabbit serum, 48 hrs",40%
same,% cumulative survival,"[1]; Table 2, DHEA 1500 μg/mouse i.p. 1 hour before LPS + D-Gal, saline 10% rabbit serum, 72 hrs",20%
same,% cumulative survival,"[1]; Table 2, DHEA 1500 μg/mouse i.p. 1 hour before LPS + D-Gal, saline 10% rabbit serum, 96 hrs",20%
same,% cumulative survival,"[1]; Table 4, DHEA 250 μg single injection at time 0 i.p., NaCl 10% PLE, 24 hr",40%
same,% cumulative survival,"[1]; Table 4, DHEA 250 μg single injection at time 0 i.p., NaCl 10% PLE, 48 hr",30%
same,% cumulative survival,"[1]; Table 4, DHEA 250 μg single injection at time 0 i.p., NaCl 10% PLE, 72 hr",30%
same,% cumulative survival,"[1]; Table 4, DHEA 250 μg single injection at time 0 i.p., NaCl 10% PLE, 96 hr",30%
same,% cumulative survival,"[1]; Table 4, DHEA 250 μg single injection at time 0 i.p., NaCl 10% RS, 24 hr",30%
same,% cumulative survival,"[1]; Table 4, DHEA 250 μg single injection at time 0 i.p., NaCl 10% RS, 48 hr",30%
same,% cumulative survival,"[1]; Table 4, DHEA 250 μg single injection at time 0 i.p., NaCl 10% RS, 72 hr",30%
same,% cumulative survival,"[1]; Table 4, DHEA 250 μg single injection at time 0 i.p., NaCl 10% RS, 96 hr",30%
same,% cumulative survival,"[1]; Table 5 group D, DHEA 250 μg single injection at time 0 i.p., NaCl 10% PLE, 24 hrs, 1st exp.",40%
same,% cumulative survival,"[1]; Table 5 group D, DHEA 250 μg single injection at time 0 i.p., NaCl 10% PLE, 48 hrs, 1st exp.",30%
same,% cumulative survival,"[1]; Table 5 group D, DHEA 250 μg single injection at time 0 i.p., NaCl 10% PLE, 72 hrs, 1st exp.",30%
same,% cumulative survival,"[1]; Table 5 group D, DHEA 250 μg single injection at time 0 i.p., NaCl 10% PLE, 96 hrs, 1st exp.",30%
same,% cumulative survival,"[1]; Table 5 group E, DHEA 62.5 μg x4 at time 0, 3, 6 and 24 hours i.p., NaCl 10% PLE, 24 hrs, 1st exp.",40%
same,% cumulative survival,"[1]; Table 5 group E, DHEA 62.5 μg x4 at time 0, 3, 6 and 24 hours i.p., NaCl 10% PLE, 24 hrs, 2nd exp.",40%
same,% cumulative survival,"[1]; Table 5 group E, DHEA 62.5 μg x4 at time 0, 3, 6 and 24 hours i.p., NaCl 10% PLE, 48 hrs, 1st exp.",40%
same,% cumulative survival,"[1]; Table 5 group E, DHEA 62.5 μg x4 at time 0, 3, 6 and 24 hours i.p., NaCl 10% PLE, 48 hrs, 2nd exp.",40%
same,% cumulative survival,"[1]; Table 5 group E, DHEA 62.5 μg x4 at time 0, 3, 6 and 24 hours i.p., NaCl 10% PLE, 72 hrs, 1st exp.",40%
same,% cumulative survival,"[1]; Table 5 group E, DHEA 62.5 μg x4 at time 0, 3, 6 and 24 hours i.p., NaCl 10% PLE, 72 hrs, 2nd exp.",40%
same,% cumulative survival,"[1]; Table 5 group E, DHEA 62.5 μg x4 at time 0, 3, 6 and 24 hours i.p., NaCl 10% PLE, 96 hrs, 1st exp.",40%
same,% cumulative survival,"[1]; Table 5 group E, DHEA 62.5 μg x4 at time 0, 3, 6 and 24 hours i.p., NaCl 10% PLE, 96 hrs, 2nd exp.",40%
same,protection from death (survival),"[1]; at least 1.500 μg/mouse DHEA, 1 hour before LPS+D-Galactosamine",70%
same,development of systemic lupus erythematosus,[2],prevent the development
same,systemic resistance against lethal viral infections,coxsackievirus B4,regulates the systemic resistance
same,systemic resistance against lethal viral infections,Semliki Forest virus,regulates the systemic resistance
same,protection from septic shock,[3],protecting mice from septic shock
same,TNF-α levels after LPS administration,TNF-α,significantly blocked
